Results published in patent publication US10328163B2, “Compounds binding to neuropathological aggregates” (Technische Universität München, priority 2014, dated 2019).
Entries after “also recorded” stand apart in the source; their conditions may differ. Like-named read-outs stand apart in the source and are kept apart here.

Columns and labels:
Aβ1-40 = Aβ1-40 (Homo sapiens, UniProt P05067); experiment: Competition binding assay vs [^3H]PiB on synthetic amyloid peptide aggregates (Aβ1-40); conditions: for inhibition at 0.1 µM: 100 nM; for Ki: read-out: Affinity Ki, Aβ1-40
Chain of Aβ1-40 (P05067 672-711): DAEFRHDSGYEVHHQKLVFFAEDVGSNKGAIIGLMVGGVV
Method: (§1) Saturation and competition binding assays of compounds in this invention towards synthetic amyloid peptides, human tau-441 recombinant and human α-synuclein recombinant aggregate (fibrils) were performed similar to previously reported assays (Manook et al. 2012 and Yousefi et al. 2011) and adapted to the change of peptides and label. Aggregates sample was deployed on 96-well cell culture plates (Greiner Bio-One, Germany) to a final reaction volume of […] per well using 8-channel electronic pipettes (Mettler Toledo, Germany) giving 12-24 octuples of data points per sample. Bound and free fractions were separated by vacuum filtration through polyethyleneimine-pretreated GF/B glass filtermats using a semi-automated Harvester 96 Mach II M (Tomtec, USA). Filters were cut and retained radioactivity determined using an automatic NaI(TI) well-type γ-detector (Wallac 1480-011 Automatic Gamma Counter, PerkinElmer, USA). Data were processed and analyzed using GraphPad Prism 6.0 (GraphPad Software, USA).

Aβ1-42 = Aβ1-42 (Homo sapiens, UniProt P05067); experiment: Competition binding assay vs [^3H]PiB on synthetic amyloid peptide aggregates (Aβ1-42); conditions: for inhibition at 0.1 µM: 100 nM; for Ki: read-out: Affinity Ki, Aβ1-42
Chain of Aβ1-42 (P05067 672-713): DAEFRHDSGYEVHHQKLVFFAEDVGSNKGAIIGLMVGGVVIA
Method: as §1

[1] = test system: Aβ1-40, Aβ1-42, τ, α-Syn aggregates; experiment: In vitro selectivity / binding profile across aggregates (potential use: targeting of); conditions: for Potential Use: Targeting of (in vitro selectivity): Table 2
Method: as §1

[2] = target: human α-synuclein recombinant aggregate (fibrils) (Homo sapiens, UniProt P37840); experiment: Saturation and competition binding assay on α-synuclein aggregates (fibrils); conditions: read-out: Affinity Ki, α-syn
Method: as §1

[3] = target: human tau-441 recombinant aggregate (fibrils) (Homo sapiens, UniProt P10636); experiment: Saturation and competition binding assay on tau aggregates (fibrils)
Chain of human tau-441 recombinant aggregate (fibrils) (P10636 1-441 isoform P10636-8): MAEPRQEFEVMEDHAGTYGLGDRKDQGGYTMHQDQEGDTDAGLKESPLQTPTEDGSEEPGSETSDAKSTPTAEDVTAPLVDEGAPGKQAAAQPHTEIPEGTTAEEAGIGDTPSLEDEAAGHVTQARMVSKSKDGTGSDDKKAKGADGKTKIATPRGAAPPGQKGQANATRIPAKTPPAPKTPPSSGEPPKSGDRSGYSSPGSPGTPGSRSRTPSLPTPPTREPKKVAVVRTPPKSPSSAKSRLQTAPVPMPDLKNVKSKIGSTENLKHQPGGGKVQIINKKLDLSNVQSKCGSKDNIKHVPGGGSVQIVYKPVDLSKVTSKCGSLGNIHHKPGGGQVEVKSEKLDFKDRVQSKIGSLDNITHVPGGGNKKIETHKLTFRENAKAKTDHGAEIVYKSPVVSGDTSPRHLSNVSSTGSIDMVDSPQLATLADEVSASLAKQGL
Method: as §1

log P (octanol/PBS) = assay type: physicochemical; conditions: Table 2
Source text: Lipophilicity of CNS tracers plays an important role on blood brain barrier (BBB) and neuronal cells uptake. Therefore a library of ^18F-bithiazoles with high binding affinity towards Aβ1-40, Aβ1-42 τ, α-Syn were synthesized and log P (octanol/PBS) of these compounds measured (Table 2). The log P values were between 1.1-3.2.

β-amyloids = experiment: In vitro staining of APP/PS1 tg mouse brain; assay type: binding; conditions: 24 month old, 1% solution of compound
Aβ and NFT = experiment: Ex vivo validation on APP/PS1-tau triple transgenic mouse brain, cross-validated with thioflavin S and AT8; assay type: in vivo
[4] = target: T1, Aβ1-40, Aβ1-42, τ, α-Syn aggregates; experiment: In vitro selectivity / binding profile across aggregates (potential use: targeting of); conditions: span over all aggregate types, summary of Table 1; read-out: in vitro affinity (Ki) to β-amyloids, NFT τ and synuclein aggregates
T1 construct: other: span over all aggregate types, text summar
Method: as §1

[5] = Table 1, read-out: Affinity Ki, T
[6] = Table 3, read-out: Affinity Ki, τ

In the case of `CCOc1ccc(-c2csc(-c3nc(-c4ccc(OC)cc4)cs3)n2)cc1` [Compound 6], the inhibition at 0.1 µM (Aβ1-40; Table 1) is reported as 22 ± 1%, the inhibition at 0.1 µM (Aβ1-42; Table 1) is reported as 30 ± 1% and the “Potential Use: Targeting of” value ([1]; Table 1) is reported as “α-syn aggregates low binding site”. For the same molecule, the Ki ([2]; Table 1) was 371 nM and the Ki [3, 5] was over 1000 nM.
In the case of `CN(C)c1ccc(-c2csc(-c3nc(-c4ccc(OCCOCCF)cc4)cs3)n2)cc1` [Compound 13], the logP (log P (octanol/PBS)) is reported as 2.6 and the “Potential Use: Targeting of (in vitro selectivity)” value [1] is reported as “Aβ”.
Molecule `CCCCOc1ccc(-c2csc(-c3nc(-c4ccc(OC)c(F)c4)cs3)n2)cc1` [Compound 5] has an inhibition at 0.1 µM (Aβ1-40; Table 1) of 11%, an inhibition at 0.1 µM (Aβ1-42; Table 1) of 45 ± 1% and a Ki (Aβ1-42; Table 1) of 380 nM. For the same molecule, the “Potential Use: Targeting of” value ([1]; Table 1) was “Aβ, α-syn aggregates low binding site”, the Ki ([2]; Table 1) was 328 nM and the Ki [3, 5] was over 1000 nM.
For `Nc1ccc(-c2csc(-c3nc(-c4ccc(NCCOCCOCCF)cc4)cs3)n2)cc1` [Compound 12], the logP (log P (octanol/PBS)) was 2 and the “Potential Use: Targeting of (in vitro selectivity)” value [1] was “Aβ”.
In the case of `COc1sc(-c2csc(-c3nc(-c4ccc5c(c4)OCO5)cs3)n2)cc1F` [Compound 23], the inhibition at 0.1 µM (Aβ1-40; Table 3) is reported as 87 ± 2%, the Ki (Aβ1-40; Table 3) is reported as 9 nM and the inhibition at 0.1 µM (Aβ1-42; Table 3) is reported as 86 ± 1%. The Ki (Aβ1-42; Table 3) was 10 nM, the logP (log P (octanol/PBS)) was 2.9 and the “Potential Use: Targeting of (in vitro selectivity)” value [1] was “PAN”. For the same molecule, the “Potential Use: Targeting of” value ([1]; Table 3) was “PAN”, the Ki ([2]; Table 3) was 7 nM and the Ki [3, 6] was 10 nM.
For `FCCOCCOc1ccc(-c2csc(-c3nc(-c4ccc5c(c4)OCO5)cs3)n2)cc1` [Compound 11], the logP (log P (octanol/PBS)) was 2.5 and the “Potential Use: Targeting of (in vitro selectivity)” value [1] was “α-syn”.
For `CN(C)c1ccc(-c2csc(-c3nc(-c4ccc(F)nc4)cs3)n2)cc1` [Compound 21], the inhibition at 0.1 µM (Aβ1-40; Table 3) was 89 ± 2%, the Ki (Aβ1-40; Table 3) was 6 nM and the inhibition at 0.1 µM (Aβ1-42; Table 3) was 88 ± 1%. For the same molecule, the Ki (Aβ1-42; Table 3) was 6 nM, the logP (log P (octanol/PBS)) was 2.1 and the “Potential Use: Targeting of (in vitro selectivity)” value [1] was “Aβ”. The “Potential Use: Targeting of” value ([1]; Table 3) was “Aβ”, the Ki ([2]; Table 3) was over 1000 nM and the Ki [3, 6] was over 1000 nM.
In the case of `FCCOCCOCCOc1ccc(-c2csc(-c3nc(-c4ccc5c(c4)OCO5)cs3)n2)cc1` [Compound 18], the logP (log P (octanol/PBS)) is reported as 2.3 and the “Potential Use: Targeting of (in vitro selectivity)” value [1] is reported as “α-syn”.
For `CN(C)c1ccc(-c2csc(-c3nc(-c4ccc(NCCOCCOCCF)cc4)cs3)n2)cc1` [Compound 19], the logP (log P (octanol/PBS)) was 2.4 and the “Potential Use: Targeting of (in vitro selectivity)” value [1] was “Aβ”.
With `FCOc1ccc(-c2csc(-c3nc(-c4ccc5c(c4)OCO5)cs3)n2)cc1` [Compound 15] the logP (log P (octanol/PBS)) was 2.6 and the “Potential Use: Targeting of (in vitro selectivity)” value [1] was “α-syn”.
In the case of `Oc1cc(-c2csc(-c3nc(-c4ccc5c(c4)OCO5)cs3)n2)ccc1OCCF` [Compound 8], the logP (log P (octanol/PBS)) is reported as 2.1 and the “Potential Use: Targeting of (in vitro selectivity)” value [1] is reported as “PAN”.
With `Oc1ccc(-c2csc(-c3nc(-c4ccc(OCCOCCOCCF)cc4)cs3)n2)cc1` [Compound 17] the logP (log P (octanol/PBS)) was 1.8 and the “Potential Use: Targeting of (in vitro selectivity)” value [1] was “The low binding site of Aβ”.
`CCOc1ccc(-c2csc(-c3nc(-c4ccc5c(c4)OCO5)cs3)n2)cc1` [Compound 4] gave an inhibition at 0.1 µM (Aβ1-40; Table 1) of 11 ± 2%, an inhibition at 0.1 µM (Aβ1-42; Table 1) of 45 ± 2% and a Ki (Aβ1-42; Table 1) of 386 nM. The Ki ([2]; Table 1) was 10 nM and the Ki [3, 5] was 558 nM.
Molecule `Fc1ccc(-c2cc(-c3csc(-c4nc(-c5ccc6c(c5)OCO6)cs4)n3)on2)cc1` [Compound 22] has an inhibition at 0.1 µM (Aβ1-40; Table 3) of 20 ± 1%, a Ki (Aβ1-40; Table 3) of over 500 nM and an inhibition at 0.1 µM (Aβ1-42; Table 3) of 35 ± 2%. For the same molecule, the Ki (Aβ1-42; Table 3) was 492 nM, the logP (log P (octanol/PBS)) was 3.2 and the “Potential Use: Targeting of (in vitro selectivity)” value [1] was “α-syn”. For the same molecule, the Ki ([2]; Table 3) was 6 nM and the Ki [3, 6] was over 1000 nM.
`COc1ccc(-c2csc(-c3nc(-c4ccc5c(c4)OCO5)cs3)n2)cc1F` [Compound 3] gave an inhibition at 0.1 µM (Aβ1-40; Table 1) of 22 ± 1%, an inhibition at 0.1 µM (Aβ1-42; Table 1) of 45 ± 2% and a Ki (Aβ1-42; Table 1) of 382 nM. The Ki ([2]; Table 1) was 3 nM and the Ki [3, 5] was over 1000 nM.
Work on `CN(C)c1ccc(-c2csc(-c3nc(-c4ccc(O)cc4)cs3)n2)cc1` [Compound 1] yielded an inhibition at 0.1 µM (Aβ1-40; Table 1) of 94%, a Ki (Aβ1-40; Table 1) of 4 nM and an inhibition at 0.1 µM (Aβ1-42; Table 1) of 88 ± 1%. For the same molecule, the Ki (Aβ1-42; Table 1) was 6 nM, the “Potential Use: Targeting of” value ([1]; Table 1) was “Aβ” and the Ki ([2]; Table 1) was over 1000 nM. The Ki [3, 5] was over 1000 nM.
For `COc1ccc(-c2csc(-c3nc(-c4ccc5c(c4)OCO5)cs3)n2)cc1O` [Compound 2], the inhibition at 0.1 µM (Aβ1-40; Table 1) was 81 ± 2%, the Ki (Aβ1-40; Table 1) was 10 nM and the inhibition at 0.1 µM (Aβ1-42; Table 1) was 86 ± 1%. For the same molecule, the Ki (Aβ1-42; Table 1) was 7 nM, the “in vitro staining of brain” value (β-amyloids) was “specific binding to β-amyloids; also recorded: targets Aβ in the mouse model” and the “ex vivo brain staining, targets labelled” value (Aβ and NFT; APP/PS1-tau triple transgenic mouse, 24 month old, 45 min p.i., 0.6 mg in DMSO, cortical (FIG. 3) and hippocampus (FIG. 4) region) was “targets Aβ and NFT in the mouse model”. For the same molecule, the “specificity of binding, ex vivo and in vitro validation” value (Aβ and NFT; APP/PS1 and APP/PS1-tau triple tg mouse model of AD brain) was “specific binding of compound 2 to Aβ and NFT”, the Ki [4] was 7 to 12 nM and the “Potential Use: Targeting of” value ([1]; Table 1) was “Aβ, α-syn, τ- aggregates (PAN- ligand)”. For the same molecule, the Ki ([2]; Table 1) was 9 nM and the Ki [3, 5] was 12 nM.
In the case of `CN(C)c1ccc(-c2csc(-c3nc(-c4ccc(O)nc4)cs3)n2)cc1` [Compound 20], the inhibition at 0.1 µM (Aβ1-40; Table 3) is reported as 90%, the Ki (Aβ1-40; Table 3) is reported as 5 nM and the inhibition at 0.1 µM (Aβ1-42; Table 3) is reported as 89 ± 1%. The Ki (Aβ1-42; Table 3) was 6 nM, the logP (log P (octanol/PBS)) was 1.9 and the “Potential Use: Targeting of (in vitro selectivity)” value [1] was “Aβ”. For the same molecule, the “Potential Use: Targeting of” value ([1]; Table 3) was “Aβ”, the Ki ([2]; Table 3) was over 1000 nM and the Ki [3, 6] was over 1000 nM.
In the case of `Oc1ccc(-c2csc(-c3nc(-c4ccc(OCCOCCF)c(O)c4)cs3)n2)cc1O` [Compound 16], the logP (log P (octanol/PBS)) is reported as 1.1 and the “Potential Use: Targeting of (in vitro selectivity)” value [1] is reported as “PAN”.
With `FCCOc1ccc(-c2csc(-c3nc(-c4ccc5c(c4)OCO5)cs3)n2)cc1` [Compound 10] the logP (log P (octanol/PBS)) was 2.6 and the “Potential Use: Targeting of (in vitro selectivity)” value [1] was “α-syn”.
In the case of `Oc1cc(-c2csc(-c3nc(-c4ccc5c(c4)OCO5)cs3)n2)ccc1OCCOCCF` [Compound 9], the logP (log P (octanol/PBS)) is reported as 1.9 and the “Potential Use: Targeting of (in vitro selectivity)” value [1] is reported as “PAN”.
In the case of `Oc1ccc(-c2csc(-c3nc(-c4ccc(OCCOCCF)cc4)cs3)n2)cc1` [Compound 14], the logP (log P (octanol/PBS)) is reported as 1.9 and the “Potential Use: Targeting of (in vitro selectivity)” value [1] is reported as “The low binding site of Aβ”.
In the case of `CN(C)c1ccc(-c2csc(-c3nc(-c4ccc(OCF)cc4)cs3)n2)cc1` [Compound 7], the logP (log P (octanol/PBS)) is reported as 3.2 and the “Potential Use: Targeting of (in vitro selectivity)” value [1] is reported as “Aβ”.
